These results are taken from ChEMBL document CHEMBL1135540, “Identification of a pharmacophore for thrombopoietic activity of small, non-peptidyl molecules. 2. Rational design of naphtho[1,2-d]imidazole thrombopoietin mimics” (J Med Chem, 2002).

Experiment [1] in a line: (§1) Activation of luciferase expression in BAF-3/TPO-Rluc cell line. In kind it is functional, cell-based. As to conditions: Homo sapiens.
A short description of experiment [2]: Efficacy in activation of luciferase expression in BAF-3/TPO-Rluc cell line and the value is reported as %TPO. Format: functional, Homo sapiens.
The test system of experiment [3] is UT7. Briefly: Efficacy in proliferation of the UT7/TPO-R cell line and the value is reported as %TPO. Format: functional, Homo sapiens.
Experiment [4] concerns UT7. Briefly: Effective concentration for proliferation of UT7/TPO-R cell line. Format: functional, cell-based. As to conditions: Homo sapiens.
Experiment [5] can be described thus: Agonistic activity against proliferation of UT-7/TPO-R cell line. In kind it is functional. As to conditions: Homo sapiens, UT7/TPO-R.
The nature of experiment [6]: Efficacy in activation of luciferase expression in UT-7/TPO-R cell line and the value is reported as % salicylaldehyde thio-semicarbazone-thrombopoietin (TPO). Format: functional, Homo sapiens.
Experiment [7] can be described thus: Activation of luciferase expression in the proliferation of UT7/TPO-R cell line. Format: functional. The settings on record: Homo sapiens.
The nature of experiment [8]: as §1. In kind it is cell-based. The settings on record: Homo sapiens.

As usually defined, the EC50 is the midpoint of the concentration-response curve. In the case of `Cc1ccc(-c2cccc(-c3nc4c(ccc5cc(S(=O)(=O)O)cc(O)c54)[nH]3)c2O)cc1C`, the EC50 in experiment [1] worked out at 1200 nM; in experiment [4] it was 1000 nM. Also, the values for the TPO in experiment [2] and in experiment [3] were 36% and 70%, respectively.
`O=S(=O)(O)c1cc(O)c2c(ccc3[nH]c(-c4c(O)ccc5ccccc45)nc32)c1`: it took 26000 nM to reach a half-maximal effect in experiment [1] (EC50). Besides, the TPO is 11% in experiment [2] and less than 10% in experiment [3].
For `O=S(=O)(O)c1cc2[nH]c(-c3c(O)ccc4ccccc34)nc2c2c(O)cccc12`, in that order: 35000 nM, 52% and less than 10%.
In experiment [5], `CC(C)(C)c1ccc(-c2cccc(-c3nc4c(ccc5cc(C(=O)O)cc(O)c54)[nH]3)c2)cc1` yielded an EC50 of 300 nM. The compound also registered a TPO in experiment [6] of 60%.
Compound `Cc1ccc(-n2[nH]c(C)c(/N=N/c3c(O)cc(S(=O)(=O)O)c4ccccc34)c2=O)cc1C` returned a concentration for a half-maximal effect (EC50) in experiment [7] of 40 nM.
In experiment [1], `O=S(=O)(O)c1cc2[nH]c(-c3ccc4ccccc4c3O)nc2c2c(O)cccc12` showed an EC50 of 4800 nM. Besides, the TPO in experiment [2] was 28%; in experiment [3] it was less than 10%.
Compound `Cc1ccc(-c2cccc(/C=N/N=C(\S)Nc3cccc(C(=O)O)c3)c2O)cc1C` showed a half-maximal effective concentration (EC50) in experiment [7] of 30 nM.
Compound `O=S(=O)(O)c1cc(O)c2c(ccc3[nH]c(-c4ccc5ccccc5c4O)nc32)c1` registered an EC50 in experiment [1] of 9700 nM. For the same compound, the TPO was 27% in experiment [2] and less than 10% in experiment [3].
`CC(C)(C)c1ccc(-c2cccc(-c3nc4c(ccc5cc(S(=O)(=O)O)cc(O)c54)[nH]3)c2)cc1`: in experiment [8], the EC50 turned out to be 80 nM. Moreover, the TPO in experiment [2] was determined as 100%.
